Laboratory results taken from ChEMBL document CHEMBL1201862, “PubChem BioAssay data set” (2004).
Active and inactive are the calls of the source.

Key:
[1] = biological target: T1, Calpain-2 catalytic subunit (Sus scrofa, UniProt P43367); experiment: m-calpain protease blockers, concentration series – biochemical, fluorogenic peptide substrate, dose response (AID 1420); type: functional
T1 sequence (P43367 whole entry): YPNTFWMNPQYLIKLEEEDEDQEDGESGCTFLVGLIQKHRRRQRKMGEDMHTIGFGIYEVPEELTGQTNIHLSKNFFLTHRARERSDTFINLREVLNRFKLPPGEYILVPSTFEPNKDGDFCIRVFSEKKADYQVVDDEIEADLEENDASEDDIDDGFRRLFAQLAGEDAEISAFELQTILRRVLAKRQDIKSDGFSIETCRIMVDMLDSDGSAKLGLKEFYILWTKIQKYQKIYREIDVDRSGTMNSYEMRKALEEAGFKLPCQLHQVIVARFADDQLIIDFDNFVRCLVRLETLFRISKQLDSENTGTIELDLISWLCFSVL

[2] = biological target: T2, Ubiquitin-conjugating enzyme E2 N (Homo sapiens, UniProt P61088); type: functional;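 note: Dose-response confirmation in a TR-FRET assay detecting UBC13-driven polyubiquitin chain formation, inhibition measured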
T2 sequence (P61088 whole entry): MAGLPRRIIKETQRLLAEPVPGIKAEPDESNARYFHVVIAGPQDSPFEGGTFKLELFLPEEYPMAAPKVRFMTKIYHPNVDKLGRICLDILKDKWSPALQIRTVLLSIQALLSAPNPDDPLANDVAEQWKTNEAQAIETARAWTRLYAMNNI

[3] = Luminescence Cell-Based Dose Retest to Confirm Inhibitors of Cancer Stem Cells. [Related pubchem assays (depositor defined):AID2717, AID2721]; type: functional; conditions: Homo sapiens
[4] = biological target: Luciferin 4-monooxygenase (Photinus pyralis, UniProt P08659); experiment: inhibition of purified Photinus pyralis luciferase – biochemical, luminescence, dose response (AID 1891)
Sequence of Luciferin 4-monooxygenase (P08659 whole entry): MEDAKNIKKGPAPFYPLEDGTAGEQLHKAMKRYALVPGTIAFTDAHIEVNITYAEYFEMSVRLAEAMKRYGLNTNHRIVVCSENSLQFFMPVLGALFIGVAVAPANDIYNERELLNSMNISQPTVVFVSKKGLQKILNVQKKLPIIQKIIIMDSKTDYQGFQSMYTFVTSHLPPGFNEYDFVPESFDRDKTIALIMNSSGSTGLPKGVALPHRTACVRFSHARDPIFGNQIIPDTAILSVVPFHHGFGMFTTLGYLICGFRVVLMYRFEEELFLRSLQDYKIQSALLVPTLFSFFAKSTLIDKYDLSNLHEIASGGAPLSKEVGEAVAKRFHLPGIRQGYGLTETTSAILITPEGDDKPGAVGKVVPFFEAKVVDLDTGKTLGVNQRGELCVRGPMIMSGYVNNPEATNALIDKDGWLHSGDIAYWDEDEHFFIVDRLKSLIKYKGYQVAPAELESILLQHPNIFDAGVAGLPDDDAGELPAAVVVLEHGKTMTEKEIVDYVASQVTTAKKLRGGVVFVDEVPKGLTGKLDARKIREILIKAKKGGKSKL

[5] = alpha-synuclein stem-loop luciferase translation blockers – H4 neuroglioma cells, luminescence, confirmation (AID 1988); type: functional, cell-based
[6] = luciferase reporter signal suppression in cells – H4 neuroglioma cells, luminescence, dose response (AID 1990); type: functional, cell-based
[7] = Luminescence Cell-Based Dose Response HTS to Identify Inhibitors of 5'UTR Stem-Loop Driven Prion Protein mRNA Translation in H4 Neuroglioblastoma Cells. [Related pubchem assays: 1827 (Project Summary), 1813 (Primary HTS)]; type: functional
[8] = Luminescence Cell-Based Dose Confirmation HTS to Identify Inhibitors of Platelet Dense Granule Release. [Related pubchem assays: 1663 (Primary HTS), 1678 (Summary of Project)]; type: functional
Cytochrome P450 2C19 = Cytochrome P450 2C19 (Homo sapiens, UniProt P33261); experiment: Cytochrome panel assay with activity outcomes. Panel member name: p450-cyp2c19 Compounds with AC50 equal or less than 10 uM are considered active; type: functional; conditions: read-out: AC50
Sequence of Cytochrome P450 2C19 (P33261 whole entry): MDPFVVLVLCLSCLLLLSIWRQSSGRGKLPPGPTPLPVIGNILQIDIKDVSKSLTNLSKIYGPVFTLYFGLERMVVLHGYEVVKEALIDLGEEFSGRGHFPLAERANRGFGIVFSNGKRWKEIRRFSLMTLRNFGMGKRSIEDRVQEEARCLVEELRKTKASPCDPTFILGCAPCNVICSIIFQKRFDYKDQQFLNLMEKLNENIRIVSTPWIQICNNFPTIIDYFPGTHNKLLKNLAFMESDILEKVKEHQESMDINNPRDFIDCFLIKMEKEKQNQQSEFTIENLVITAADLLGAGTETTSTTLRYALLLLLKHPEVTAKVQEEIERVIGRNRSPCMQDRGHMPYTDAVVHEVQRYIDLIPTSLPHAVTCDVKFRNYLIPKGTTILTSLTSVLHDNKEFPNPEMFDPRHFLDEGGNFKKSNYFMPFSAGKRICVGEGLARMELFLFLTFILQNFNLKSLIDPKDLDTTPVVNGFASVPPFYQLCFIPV

[9] = biological target: T3, Rac GTPase-activating protein 1 (Homo sapiens, UniProt Q9H0H5); experiment: blockers of MgcRacGAP-driven Rac1 GTP hydrolysis – biochemical, ADP Hunter fluorescence, primary and confirmatory, confirmation (AID 624330); type: functional
T3 sequence (Q9H0H5 whole entry): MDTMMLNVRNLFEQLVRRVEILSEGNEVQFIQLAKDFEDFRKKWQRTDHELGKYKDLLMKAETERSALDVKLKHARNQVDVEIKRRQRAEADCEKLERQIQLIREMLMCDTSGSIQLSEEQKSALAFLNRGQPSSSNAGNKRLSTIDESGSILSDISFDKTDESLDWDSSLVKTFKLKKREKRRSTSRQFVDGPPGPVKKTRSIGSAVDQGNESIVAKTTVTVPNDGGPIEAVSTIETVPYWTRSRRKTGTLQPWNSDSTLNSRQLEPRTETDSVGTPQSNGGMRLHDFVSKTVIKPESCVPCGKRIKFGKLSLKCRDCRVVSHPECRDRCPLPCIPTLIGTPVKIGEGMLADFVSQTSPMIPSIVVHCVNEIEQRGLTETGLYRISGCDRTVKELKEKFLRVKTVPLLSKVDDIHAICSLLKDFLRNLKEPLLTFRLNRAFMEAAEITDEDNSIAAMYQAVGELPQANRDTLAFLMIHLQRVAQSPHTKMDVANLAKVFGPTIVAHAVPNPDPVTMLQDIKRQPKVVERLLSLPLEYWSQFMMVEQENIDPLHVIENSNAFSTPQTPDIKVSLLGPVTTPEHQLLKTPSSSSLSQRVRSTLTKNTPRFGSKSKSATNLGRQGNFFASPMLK

[10] = biological target: Induced myeloid leukemia cell differentiation protein Mcl-1 (Homo sapiens, UniProt Q07820); type: functional
Sequence of Induced myeloid leukemia cell differentiation protein Mcl-1 (Q07820 whole entry): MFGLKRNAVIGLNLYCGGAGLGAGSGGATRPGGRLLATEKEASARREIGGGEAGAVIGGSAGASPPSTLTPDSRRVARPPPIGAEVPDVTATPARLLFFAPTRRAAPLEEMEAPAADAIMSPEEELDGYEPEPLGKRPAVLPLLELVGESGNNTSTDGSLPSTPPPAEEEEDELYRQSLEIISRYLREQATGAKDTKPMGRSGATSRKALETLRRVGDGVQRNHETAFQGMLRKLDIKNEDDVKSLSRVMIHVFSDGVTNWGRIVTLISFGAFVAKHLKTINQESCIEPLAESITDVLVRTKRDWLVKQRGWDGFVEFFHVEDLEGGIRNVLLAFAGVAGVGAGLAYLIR

cells [11] = type: functional, cell-based
cells [12] = type: functional, cell-based; remark: listed apart in the source
H9c2 = experiment: cells; type: functional, cell-based; conditions: Rattus norvegicus, H9c2, Myocardium;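 note: confirmatory concentration-response retest of ultra-high-throughput screening hits for modulation of myocardial damage; cell death induced by hydrogen peroxide oxidative stress; compound pretreatment for 60 min then peroxide exposure for 2 h; potency is for protecting the cells against peroxide damage rather than for killing them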
[13] = biological target: T4, Heat shock factor protein 1 (Mus musculus, UniProt P38532); experiment: enhancement of HSF1-driven luciferase signal – cell-based, NIH3T3, luminescence, dose retest, confirmation (AID 435004); type: functional;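 note: stress induced by proteasome inhibitor MG132 added 30 min after compound; luciferase reporter driven by HSF1 response element in NIH3T3 cells; actives raise luminescence as potentiators of the MG132 stress response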
T4 sequence (P38532 whole entry): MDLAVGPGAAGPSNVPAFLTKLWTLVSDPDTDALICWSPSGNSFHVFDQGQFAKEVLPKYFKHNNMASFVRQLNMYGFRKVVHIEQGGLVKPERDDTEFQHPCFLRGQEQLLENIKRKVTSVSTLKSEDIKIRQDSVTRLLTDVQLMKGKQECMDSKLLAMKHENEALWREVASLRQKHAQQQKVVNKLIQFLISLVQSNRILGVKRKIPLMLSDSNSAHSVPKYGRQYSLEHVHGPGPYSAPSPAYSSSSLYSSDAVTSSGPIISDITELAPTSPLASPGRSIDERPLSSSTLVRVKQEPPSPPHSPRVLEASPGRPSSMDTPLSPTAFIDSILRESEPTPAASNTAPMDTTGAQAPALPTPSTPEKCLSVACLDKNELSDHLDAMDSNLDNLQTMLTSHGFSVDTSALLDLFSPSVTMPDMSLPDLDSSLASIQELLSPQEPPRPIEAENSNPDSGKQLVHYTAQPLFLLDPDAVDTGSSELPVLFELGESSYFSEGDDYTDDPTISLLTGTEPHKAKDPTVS

[14] = biological target: T5, Polyadenylate-binding protein 1 (Homo sapiens, UniProt P11940); experiment: MLLE domain peptide-binding blockers, IC50 – biochemical, fluorescence polarization, FITC-PAM2 peptide, dose response (AID 602259); type: functional; conditions: read-out: IC50_Mean
T5 sequence (P11940 whole entry, the tested form may be a part): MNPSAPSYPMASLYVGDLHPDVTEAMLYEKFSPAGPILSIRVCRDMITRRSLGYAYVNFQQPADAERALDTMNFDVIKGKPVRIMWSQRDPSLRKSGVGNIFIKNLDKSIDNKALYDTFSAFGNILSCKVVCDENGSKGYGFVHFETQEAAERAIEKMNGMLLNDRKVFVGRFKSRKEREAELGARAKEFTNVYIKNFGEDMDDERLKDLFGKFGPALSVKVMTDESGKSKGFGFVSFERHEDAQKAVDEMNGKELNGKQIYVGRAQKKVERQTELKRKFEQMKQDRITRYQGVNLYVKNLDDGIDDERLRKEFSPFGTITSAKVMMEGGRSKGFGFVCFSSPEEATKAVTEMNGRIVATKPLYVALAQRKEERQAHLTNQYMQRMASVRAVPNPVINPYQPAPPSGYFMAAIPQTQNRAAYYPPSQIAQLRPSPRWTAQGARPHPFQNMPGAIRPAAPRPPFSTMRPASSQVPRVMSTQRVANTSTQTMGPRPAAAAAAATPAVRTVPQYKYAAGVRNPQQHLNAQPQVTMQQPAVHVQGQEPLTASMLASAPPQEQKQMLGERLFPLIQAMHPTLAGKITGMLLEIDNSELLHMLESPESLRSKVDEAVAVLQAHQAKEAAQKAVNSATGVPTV

[15] = biological target: T5, Polyadenylate-binding protein 1; experiment: MLLE binding blockers, Cy5 peptide tracer – biochemical, fluorescence polarization, Cy5-PAM2 peptide, secondary, miRNA deadenylation inhibitor project, dose response (AID 602260); type: functional; conditions: read-out: IC50_Mean
SN12K1 = experiment: cells; type: functional; conditions: Homo sapiens
P388/ADR = experiment: cells; type: functional; conditions: Mus musculus
P388 = experiment: cells; type: functional; conditions: Mus musculus
[16] = NIH-3T3 fibroblast cytotoxicity, dose response, cytotoxicity control, cell-based, fluorescence, Alamar Blue, secondary assay (AID 2327); type: functional;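 note: NIH-3T3 mouse fibroblasts cultured with fluconazole at 8 µg/mL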
[17] = fluconazole-exposed Candida albicans growth modulators – fluorescence, retest, confirmation (AID 2467); type: functional, cell-based
[18] = system: Streptococcus sp. 'group A'; experiment: Streptococcus pyogenes SK(-)GAS viability under kanamycin – luminescence, BacTiterGlo, confirmation, counter-screen for streptokinase expression inhibitor project, dose response (AID 1900); type: functional, organism-based
INS1 = experiment: INS-1E survival protection against cytokine death – cell-based, luminescence, retest, dose response (AID 449756); type: functional; conditions: Rattus norvegicus;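 note: cell death triggered by IL-1 beta plus TNF-alpha plus IFN-gamma mixture; protective hits raise ATP signal compared with cytokine alone wells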
Streptococcus = experiment: GAS UMAA2166 growth inhibition – luminescence, BacTiterGlo, counter-screen for streptokinase expression inhibitor project, dose response (AID 1915); type: functional, organism-based;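 note: potency for reduction of bacterial viability or growth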

Cc1ccc(C(=O)NC(=S)NCc2cccnc2)c(C)c1
IC50 [1]: > 50 µM (not active)

O=C(c1ccccc1)c1cn(CC(=O)N2CCCc3ccccc32)c2ccccc12
IC50 [1]: < 0.4 µM (not active)

Cc1ccc(N2C(=O)N(CC(=O)Nc3cc(C)cc(C)c3)C(=O)C2C)cc1 (configuration not stated)
IC50 [1]: > 50 µM (not active)

CCOC(=O)CSc1nc2ccccc2c(=O)n1NC(=O)c1ccccc1
IC50 [2]: > 20 µM (inactive)

CC(C)(C)C1CCC(C(=O)OCC(=O)N2CCN(C(=O)c3ccco3)CC2)CC1 (configuration not stated)
IC50 [1]: 29.8 µM (not active)

CCOc1ccc(NC(=O)CCCOc2cc(=O)n(C)c3ccccc23)cc1
IC50 [2]: > 20 µM (inactive)

CCCCCc1cc(=O)oc2c(C(CCN3CCCCC3)c3cc(OC)c(OC)c(OC)c3)c(OC)cc(OC)c12 (configuration not stated)
AC50 [3]: 6.58 µM (active)
IC50 [2]: > 20 µM (inactive)

c1ccc2nc(-c3ccc(N4CCOCC4)cc3)ccc2c1
EC50 [4]: 0.793 µM (active)
EC50 [5]: 0.413 µM (inconclusive)
EC50 [6]: 4.01 µM (inconclusive)
EC50 [7]: 0.757 µM (active)
EC50 [8]: 3.7 µM (active)

CN(C)c1ccc(NC(=O)c2cccc(N3C(=O)C4C5C=CC(C5)C4C3=O)c2)cc1 (configuration not stated)
AC50 (Cytochrome P450 2C19): 25.1 µM (inconclusive)
IC50 [9]: 49.2 µM (active)
IC50 [10]: 1.89 µM (not active)

CCCCC(=O)N1CCN(c2nc3ccc(F)cc3s2)CC1
EC50 (cells [11]): > 350 µM (not active)
EC50 (cells [12]): 4.69 µM (active)

Cc1ccc(OCc2nnc(SCC(=O)c3cccc([N+](=O)[O-])c3)n2C)cc1
IC50 [1]: 4.87 µM (not active)

O=c1cc(COc2ncnc3c(Cl)cc(Cl)cc23)nc2sccn12
IC50 (H9c2): > 79 µM (inactive)
EC50 [4]: > 112 µM (not active)
EC50 [8]: > 112 µM (not active)

CC(=O)c1c(S)nc(-c2ccccc2)nc1N1CCCC1
IC50 [1]: > 50 µM (not active)

COc1ccc(-n2ncc(S(=O)(=O)c3ccccc3)c2-c2ccc(Cl)cc2)cc1
IC50 [1]: 3.23 µM (not active)

O=C(c1ccccc1)c1ccc2nc(-c3ccco3)c(-c3ccco3)nc2c1
EC50 [13]: 32.3 µM (active)
IC50 [10]: 6.46 µM (active)

Cc1ccc(NC(=O)C[S+]([O-])CC(=O)NCCCc2ccccc2)cc1Cl (configuration not stated)
IC50 [2]: > 20 µM (inactive)

COc1cc(NS(=O)(=O)c2ccc(NC(=S)NC(=O)c3sc4cc(F)ccc4c3Cl)cc2)nc(OC)n1
IC50 [14]: > 66 µM (inactive)
IC50 [15]: > 66 µM (inactive)
IC50 [10]: 4.37 µM (not active)

NS(=O)(=O)c1ccc(CCNC(=O)c2cc(-c3ccco3)nc3ccccc23)cc1
IC50 [2]: > 20 µM (inactive)

c1ccc(-c2nnc3sc(-c4cc5ccccc5o4)nn23)cc1
EC50 (cells [11]): > 350 µM (not active)
EC50 (cells [12]): > 350 µM (not active)

CC(C)C[C@@H]1CN=C(N)N1C[C@@H]1CCCN1C[C@H](C)N1C[C@@H](Cc2ccccc2)N(CCCC2CCCC2)C1=N
IC50 [2]: > 20 µM (inactive)

CC[C@@H](C)[C@@H]1CN([C@@H](CN2CCC[C@H]2CN2C(N)=NC[C@H]2CC(C)C)C(C)C)C(=N)N1CCCC1CCCC1
IC50 [2]: > 20 µM (inactive)

CC(O)CCC(=O)c1ccoc1 (configuration not stated)
GI50 (SN12K1): 7230 µM (inactive)
GI50 (P388/ADR): 3660 µM (inactive)
GI50 (P388): 4940 µM (inactive)

Cc1nc(=O)n2c(c1C(=O)Nc1ccc(Cl)cc1)NCC2
GI50 (P388): > 31.6 µM (inactive)

CC1NC(=O)C(C)C(c2ccccc2)N(N=O)C1c1ccccc1 (configuration not stated)
GI50 (SN12K1): > 100 µM (inactive)
GI50 (P388/ADR): 0.933 µM (active)
GI50 (P388): 21 µM (inactive)

ClCc1ccc2ccc3ccc(CCl)nc3c2n1
GI50 (SN12K1): 1.87 µM (inactive)
GI50 (P388/ADR): 0.883 µM (active)
GI50 (P388): 1.51 µM (inactive)

C=C1C(=O)OC2CC1CCC1(C)OC1CCC(C)=CCCC2(C)O (configuration not stated)
GI50 (SN12K1): 4.35 µM (inactive)
GI50 (P388/ADR): 0.463 µM (active)
GI50 (P388): 1.08 µM (active)

C/C(=N\NC(=O)c1cccc(N/N=C(\C)c2cc(O)ccc2O)c1)c1cc(O)ccc1O
EC50 [13]: > 260 µM (inactive)
EC50 [16]: 10.8 µM (active)
EC50 [17]: > 38 µM (not active)
IC50 [9]: 67.8 µM (active)
IC50 [10]: 3.43 µM (active)

CC1=C2C3OC(=O)C(C)C3CCC2(C)C=C/C1=N\c1ccccc1 (configuration not stated)
GI50 (SN12K1): > 100 µM (inactive)
GI50 (P388/ADR): > 100 µM (inactive)
GI50 (P388): > 100 µM (inactive)

Cc1cc(C(=O)NCCN(C)C)c2nc3ccccc3cc2c1
GI50 (SN12K1): 0.519 µM (active)
GI50 (P388/ADR): 0.341 µM (active)
GI50 (P388): 0.0418 µM (active)

O=C(N/N=C/c1ccccc1O)c1ccc2c(c1)OCO2
EC50 [18]: 4.24 µM (active)
EC50 (cells [11]): 101 µM (active)
EC50 (cells [12]): 12.6 µM (active)
AC50 (INS1): 2.58 µM (active)
EC50 (Streptococcus): 4.46 µM (active)

Cc1[nH]n(-c2ccc(C(=O)O)cc2)c(=O)c1CCO
IC50 [1]: > 50 µM (not active)

O=[N+]([O-])c1cccc(-c2nc3ccccc3s/c2=N/O)c1
IC50 [1]: 22 µM (not active)

O=C1C=CC(=O)c2c(Cl)ccc(O)c21
GI50 (SN12K1): 25.6 µM (inactive)
GI50 (P388/ADR): 0.344 µM (active)
GI50 (P388): 0.499 µM (active)

COc1ccc2cc1Oc1ccc(cc1)C[C@H]1c3cc(c(OC)cc3CCN1C)Oc1c(OC)c(OC)cc3c1[C@H](C2)N(C)CC3 [FANCHININ]
GI50 (SN12K1): 7.06 µM (inactive)
GI50 (P388/ADR): 3.05 µM (inactive)
GI50 (P388): 1.77 µM (inactive)
